Where two headings read alike, the source gives them in different places.

Data set [1] deals with dorsal skin (erythema and scaling). Also noted: species or system New Zealand white rabbit (male). The following applies: rabbit, in vivo. The method, then:
4. Topical tolerance study of the test substances Six New Zealand white male rabbits were used in each study. Sites, each about 6 cm^2 in size, were shaved on the dorsal trunk of each test animal. The test substances were dissolved in a 70:30 volume/volume alcohol:propylene glycol mixture and 0.2 ml of the solution was applied topically from an automatic micropipette by gentle inunction to a pre-designated site twice daily, with an interval of six hours, for nine successive days. All sites were subjectively evaluated for erythema and scaling at the beginning of the test and before each morning application. A numerical grading scale of 0 to 3 was used (0=no reaction, 1=mild, 2=moderate, 3=severe).

Data set [2] has as its system comedones induced by coal tar (rabbit ear model). Briefly: Comedolytic activity in a rabbit ear model. Type of data set: in vivo, albino rabbit. As to conditions: topical, two weeks, decrease in comedones vs control ear. The method, then:
Comedo formation was induced by topical application (0.5 ml), once daily, of 5% coal tar in Polyan® (an ester of lanolin alcohol and linoleic acid, from Amerchol Corp., USA) to both ears of albino rabbits on 5 successive days per week, for two weeks. Following this, the test substance, in a 70:30 volume/volume alcohol:propylene glycol mixture, was applied topically, in an amount of 0.5 ml, to the inner surface of one ear of each rabbit once daily on 5 consecutive days per week, for two weeks. The contra-lateral ear of each rabbit served as an untreated control.
Following a subsequent treatment (~72 hours) with the test substance, the rabbits were sacrificed. A sample of skin, of about 6 cm^2, was removed from the pinna of each ear just external to the auditory canal and was divided into pieces of about 1 cm^2.
These pieces of skin were immersed in water at 60° C. for 2 minutes. The epidermis was carefully peeled off using the flat end of a spatula and fine forceps, and was placed on a microscope slide, with the dermal side facing upward. After overnight airdrying, the slide was examined under the stereomicroscope. Follicular extensions of horny material remain intact. Comedones show up as discrete, uniformly shaped, cylindrical to global horny masses, whose size and number are proportional to the […].
The comedolytic effect was determined by the decrease in the number of comedones in comparison with the control ear.

Data set [3] concerns male Sprague-Dawley CD rats. As to the kind of experiment: Comparative oral toxicity in rats (inhibition of growth and lethality over two weeks). As to conditions: for Proportion of survivors, Day 6 / Proportion of survivors, Day 11: 25 μmole/day in corn oil with 4% chloroform; for Average weight, Day 6 / Average weight, Day 11: 25 μmole/day, initial weight 95-110 g; for Average weight, Day 6: Day 6, mean with standard deviation; for Average weight, Day 11: Day 11, mean with standard deviation. The method, then:
2. Comparative toxicity of all-E-N-(tetrazol-5-yl)-retinamide and 13-Z-N-(tetrazol-5-yl)-retinamide.
(a) Male Sprague-Dawley CD rats from Charles River (50-75 g) were randomized and weighed daily for one week before the start of the experiment. At the beginning of the toxicological screen the animals weighed 95-110 g.
(b) The vehicle for the test substances was corn oil containing 4% of chloroform. The dose was 25 μmole of test substance/day, in 0.5 ml of vehicle.

Data set [4] has as its system keratinization of hamster tracheal epithelium (tracheal organ culture, vitamin A deficiency). Briefly: Reversal of keratinization in tracheal organ culture. It is filed as cell-based. As to conditions: Mesocricetus auratus, 240 h, read-out: ED50 (molar dose effective in suppressing keratinization in one-half of the cultures). From the text:
This keratinization is inhibited, after initiation by chemical compounds, through the use of high energy radiation, or after viral cell transformation, through the use of the novel compounds of the formula (I). The method is described in Cancer Res. 36 (1976), 964-972, Nature 250 (1974), 64-66 and Nature 253 (1975), 47-50.
This assay measures the intrinsic ability of the novel compounds to control epithelial cell differentiation. The significant predictive value of this screening procedure for the potential use of a novel retinoid in the prevention of epithelial tissue tumors is generally accepted. At the same time it is known that any in vitro test system has disadvantages for the prediction of in vivo activity. Apart from these fundamental limitations, the tracheal organ culture assay is one of the most valuable procedures for evaluating the biological activity of a novel retinoid.
The assay procedure determines the ability of the two compounds to reverse keratinization in a defined in vitro system. Tracheas from hamsters in a very early stage of vitamin A deficiency were placed in organ culture. At that time, the animals were 29-30 days old (having been weaned at 21 days) and were still gaining some weight. Their average weight was 47-52 g. Their tracheal epithelium was generally low columnar or cuboidal, with only occasional patches of squamous metaplasia. Each trachea was opened from the larynx to the carina along the membranous dorsal wall and placed in culture in a serum-free medium (CMRL-1066 supplemented with crystalline bovine insulin, 1.0 μg/ml; hydrocortisone hemisuccinate, 0.1 μg/ml; glutamine, 2 mM; penicillin, 100 units/ml; and streptomycin, 100 μg/ml). The cultures were gassed with a mixture of 50% of oxygen, 45% of nitrogen and 5% of carbon dioxide. The culture dishes were rocked through 35.5-36.0 degrees to contact the tracheas with both gas and medium. All tracheas were maintained in medium containing no retinoid for the first 3 days. At the end of the 3 days, some tracheas were harvested. Almost all of these tracheas had significant squamous metaplasia. […]

The subject of data set [5] is the organism. The following applies: in vivo; cited from earlier work.
Data set [6] concerns liver. As to conditions: use in therapy; cited from earlier work.
Where [7] appears, read: hamster tracheal organ culture, serum-free medium, 10 days, extrapolated from dose-response curves.

Turning to `CC1=C(/C=C/C(C)=C/C=C/C(C)=C\C(=O)Nc2nnn[nH]2)C(C)(C)CCC1` [13-Z-N--(tetrazol-5-yl)-retinamide, 13-Z-N-(tetrazol-5-yl)-retinamide], in data set [1], the Rating erythema result is “mild”, the Rating scaling entry is on record as “none”, the mean erythema came out at 0.5 and the mean scaling was determined as 0.1. Moreover, the “% comedolytic activity” value in data set [2] (0.1% concentration) is recorded as 39.4%. In data set [3], the “Proportion of survivors, Day 6” value was 2/5; the “Proportion of survivors, Day 11” value was 2/5; the “Average weight, Day 6” value amounted to 122 ± 18; the “Average weight, Day 11” value amounted to 140 ± 27. In data set [4] (setting [7]), the IC50 was 0.2 nM.
Regarding `CC1=C(/C=C/C(C)=C/C=C/C(C)=C\C(=O)O)C(C)(C)CCC1` [13-Z-retinoic acid, reference compound], in data set [1], the Rating erythema entry is listed as “severe”, the Rating scaling entry is on record as “severe”, the mean erythema was found to be 3.0 and the mean scaling is listed as 3.0.
With `CC1=C(/C=C/C(C)=C/C=C/C(C)=C/C(=O)Nc2nnn[nH]2)C(C)(C)CCC1` [all-E-N--(tetrazol-5-yl)-retinamide, all-E-N-(tetrazol-5-yl)-retinamide], in data set [1], the Rating erythema entry is “mild”, the Rating scaling entry is “none”, the mean erythema came to 0.8 and the mean scaling is given as 0. In addition, the “% comedolytic activity” value in data set [2] (0.025% concentration) is listed as 35.1%. Moreover, in data set [3], the “Proportion of survivors, Day 6” value was 3/4; the “Proportion of survivors, Day 11” value is listed as 3/4; the “Average weight, Day 6” value is reported as 124 ± 6; the “Average weight, Day 11” value was 155 ± 4. Moreover, the IC50 in data set [4] (setting [7]) was 0.1 nM.
On to `CC1=C(/C=C/C(C)=C/C=C/C(C)=C/C(=O)O)C(C)(C)CCC1` [all-E-retinoic acid, reference compound], for which, in data set [1], the Rating erythema result is listed as “moderate”, the Rating scaling result was “moderate”, the mean erythema is 2.3 and the mean scaling is reported as 1.9. For the same molecule, the toxic effects result in data set [5] was “even slightly increased doses cause severe damage to the organism, for example with symptoms of hypervitaminosis-A”. The “% comedolytic activity” value in data set [2] (0.05% concentration) is given as 58.3%. For the same molecule, in data set [3], the “Proportion of survivors, Day 6” value is 3/5; the “Proportion of survivors, Day 11” value is on record as 0/5; the “Average weight, Day 6” value amounted to 95 ± 2. Also, in data set [4], the IC50 was 0.03 nM.
Regarding `CC1=C(/C=C/C(C)=C/C=C/C(C)=C/CO)C(C)(C)CCC1` [retinol], in data set [6], the “liver retinoid concentration and organ damage” value is “intolerably high retinoid concentration in the liver leads to severe and irreversible damage to the organ”.
For the molecule `CC(=O)OC/C=C(C)/C=C/C=C(C)/C=C/C1=C(C)CCCC1(C)C` [retinyl acetate], the “liver retinoid concentration and organ damage” value in data set [6] is “intolerably high retinoid concentration in the liver leads to severe and irreversible damage to the organ”.

These data come from US4459404A, “Amides of retinoic acids with 5-amino tetrazole” (BASF Aktiengesellschaft, priority 1980, dated 1984).
